According to US11376337B2, “Expression of neuropeptides” (California Institute of Technology, priority 2017, dated 2022):
Entries after “also recorded” stand apart in the source; their conditions may differ.

Experiments:
[1] = literature statement; cited from earlier work
Nk3R [2] = biological target: T1, Nk3R (Homo sapiens, UniProt P29371); settings: trials for schizophrenia, bipolar and panic disorder; cited from earlier work
T1 sequence (P29371 1-465): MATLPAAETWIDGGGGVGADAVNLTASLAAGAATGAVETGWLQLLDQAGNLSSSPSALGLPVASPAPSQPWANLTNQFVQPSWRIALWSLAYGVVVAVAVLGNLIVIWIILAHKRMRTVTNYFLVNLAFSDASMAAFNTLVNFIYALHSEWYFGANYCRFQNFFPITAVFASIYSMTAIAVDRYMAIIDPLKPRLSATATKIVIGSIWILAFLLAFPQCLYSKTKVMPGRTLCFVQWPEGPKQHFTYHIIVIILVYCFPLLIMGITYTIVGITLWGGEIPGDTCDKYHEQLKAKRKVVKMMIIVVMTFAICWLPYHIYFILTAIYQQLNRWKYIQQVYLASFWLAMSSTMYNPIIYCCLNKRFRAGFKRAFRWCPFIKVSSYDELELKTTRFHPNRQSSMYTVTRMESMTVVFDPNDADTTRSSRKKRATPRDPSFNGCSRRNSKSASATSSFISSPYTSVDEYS

Nk3R [3] = biological target: T2, Nk3R (Mus musculus, UniProt P47937); assay: Social interaction assay, osanetant; settings: SIS mice; acute systemic osanetant
T2 sequence (P47937 1-452): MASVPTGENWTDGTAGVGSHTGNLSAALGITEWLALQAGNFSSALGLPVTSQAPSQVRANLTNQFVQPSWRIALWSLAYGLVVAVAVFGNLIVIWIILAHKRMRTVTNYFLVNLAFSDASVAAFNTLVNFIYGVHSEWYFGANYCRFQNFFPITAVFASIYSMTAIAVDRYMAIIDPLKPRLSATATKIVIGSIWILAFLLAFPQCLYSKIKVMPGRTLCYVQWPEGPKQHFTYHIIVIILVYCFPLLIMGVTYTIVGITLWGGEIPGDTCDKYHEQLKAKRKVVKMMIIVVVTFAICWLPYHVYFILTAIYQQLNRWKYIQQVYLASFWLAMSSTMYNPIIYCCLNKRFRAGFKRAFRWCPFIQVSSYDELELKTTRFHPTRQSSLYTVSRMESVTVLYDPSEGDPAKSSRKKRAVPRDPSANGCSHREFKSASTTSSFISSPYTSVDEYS

Nk3R [4] = biological target: T2, Nk3R; assay: Acoustic startle response, osanetant; settings: SIS mice; acute systemic osanetant
Nk3R [5] = biological target: T2, Nk3R; assay: Looming disk assay (freezing), osanetant; settings: for acute (and thereby persistent) freezing to innate threatening stimulus (looming disk): osanetant injection into CeA
Nk3R [6] = biological target: T2, Nk3R; assay: Resident intruder assay (aggression), osanetant; settings: for SIS-induced aggression: osanetant microinfusion into DMH
Nk3R [7] = biological target: T2, Nk3R; assay: Tail rattles during looming disk assay, osanetant; settings: SIS mice; acute systemic osanetant
Nk3R [8] = biological target: T2, Nk3R; assay: Tone fear conditioning test (freezing), osanetant; format: in vivo, mice; design: endogenous in cells; host or cells: living mice (wild-type C57Bl6/N males, Charles River); systemic i.p. dosing or microinfusion into dBNSTa, DMH, CeA; settings: for acute (and thereby persistent) freezing to conditioned threatening stimulus (tone): osanetant injection into CeA; for SIS-induced persistent freezing to conditioned tone: osanetant microinfusion into dBNSTa, 375 ng per site, 20 min before test
Nk3R [9] = biological target: T2, Nk3R; assay: Shock reactivity (footshock), osanetant; format: in vivo, mice; design: endogenous in cells; host or cells: living mice (wild-type C57Bl6/N males, Charles River); systemic i.p. dosing or microinfusion into dBNSTa, DMH, CeA
Nk3R [10] = biological target: T2, Nk3R; assay: Return to housing with pre-isolation cagemates after SIS, osanetant; format: in vivo, mice; design: endogenous in cells; host or cells: living mice (wild-type C57Bl6/N males, Charles River); systemic i.p. dosing or microinfusion into dBNSTa, DMH, CeA; settings: osanetant during SIS; data not shown
[11] = SIS mice, osanetant 5 mg/kg i.p. 20 min prior to assay
[12] = SIS mice, osanetant microinfusion into DMH
[13] = osanetant 5 mg/kg i.p. 20 min prior to assay, during stimulus
[14] = osanetant daily during two-week SIS, tested off-drug
[15] = SIS mice, osanetant injection into CeA
[16] = SIS mice, osanetant microinfusion into dBNSTa

## CC(=O)N(C)C1(c2ccccc2)CCN(CCC[C@]2(c3ccc(Cl)c(Cl)c3)CCCN(C(=O)c3ccccc3)C2)CC1 [osanetant]
[1]
  crossing of the blood-brain barrier: crosses the blood-brain barrier
Nk3R [2]
  efficacy in clinical trials: lack of efficacy
  tolerability in clinical trials: well tolerated
Nk3R [3]
  SIS-induced decreased social interaction (time in social zone): blocked; also recorded: attenuated
Nk3R [4]
  SIS-enhanced responding in acoustic startle assay: blocked; also recorded: attenuated
Nk3R [5]; [11]
  SIS-induced persistent (post) freezing to looming disk: blocked; also recorded: attenuated
Nk3R [5]; SIS mice
  acute (and thereby persistent) freezing to innate threatening stimulus (looming disk): reduced
Nk3R [5]; SIS mice, listed as Osanetant
  acute (and thereby persistent) freezing to innate threatening stimulus (looming disk): selectively blocked
Nk3R [5]; SIS mice, osanetant microinfusion into ACC
  SIS-induced persistent freezing to looming disk: failed to yield significant effects; also recorded: No significant effects
Nk3R [5]; [12]
  persistent responses to looming stimulus: had no effect
Nk3R [5]; SIS mice, osanetant microinfusion into dBNSTa, 375 ng per site, 20 min before test
  SIS-induced persistent freezing to looming disk: selectively inhibited
Nk3R [5]; SIS mice, osanetant microinfusion into dBNSTa, 375 ng per site, 20 min before test, listed as Osanetant
  SIS-induced persistent freezing to looming disk: selectively blocked
Nk3R [5]; SIS mice, osanetant microinfusion into striatum
  SIS-induced persistent freezing to looming disk: failed to yield significant effects; also recorded: No significant effects
Nk3R [5]; [13]
  freezing during presentation of looming disk: no significant differences
Nk3R [5]; [14]
  persistent freezing to looming disk: prevented
Nk3R [6]; 2 weeks co-habitation with a female, no isolation, systemic osanetant
  aggression promoted by sexual experience: had no effect
Nk3R [6]; [11]
  SIS-enhanced aggression: blocked; also recorded: strongly reduced
Nk3R [6]; [15]
  aggression: unaffected
Nk3R [6]; SIS mice
  SIS-induced aggression: abolished
Nk3R [6]; SIS mice, listed as Osanetant
  SIS-induced aggression: selectively blocked
Nk3R [6]; [16]
  aggression: no effect
Nk3R [6]; [14]
  SIS-enhanced aggression: prevented
Nk3R [7]
  SIS-induced increased tail rattling: blocked; also recorded: attenuated
Nk3R [8]; [11]
  SIS-induced persistent (post) freezing to fear-conditioned tone: blocked; also recorded: attenuated
Nk3R [8]; SIS mice
  acute (and thereby persistent) freezing to conditioned threatening stimulus (tone): reduced
  SIS-induced persistent freezing to conditioned tone: selectively inhibited
Nk3R [8]; SIS mice, listed as Osanetant
  acute (and thereby persistent) freezing to conditioned threatening stimulus (tone): selectively blocked
  SIS-induced persistent freezing to conditioned tone: selectively blocked
Nk3R [8]; [12]
  persistent responses to conditioned tone: had no effect
Nk3R [8]; [13]
  freezing during presentation of fear-conditioned tone: no significant differences
Nk3R [8]; [14]
  persistent freezing to fear conditioned tone: prevented
Nk3R [9]; [11]
  SIS-induced increased shock reactivity: blocked
Nk3R [9]; [15]
  reactivity to footshock (SIS-enhanced): reduced; also recorded: blocked
Nk3R [9]; [12]
  responses to footshock: had no effect
Nk3R [9]; [16]
  shock reactivity: no effect
Nk3R [9]; [14]
  SIS-induced increase in shock reactivity: a trend to protection; also recorded: reduced, but not significantly
Nk3R [10]
  fighting after return to housing with pre-isolation cagemates: without any subsequent fighting observed
